The source of these data is the Deep4Chem optical property database.

The nature of this data set: solvent given as SMILES.

For `CCc1ccc(/C=N/c2cc(C(C)C)c(O)cc2C)cc1`, the emission maximum was 406 nm (in C1CCCCC1); 412 nm (in C1CCOC1); 410 nm (in C1COCCO1); 421 nm (in CC#N); 414 nm (in CC(C)(C)O); 418 nm (in CC(C)O). For the same compound, the emission maximum is recorded as 402 nm (in CCCCCC); 420 nm (in CCCCO); 422 nm (in CCO); 412 nm (in CCOC(C)=O); 423 nm (in CN(C)C=O); 428 nm (in CO). The emission maximum runs as follows: (in CS(C)=O) 431 nm; (in ClC(Cl)Cl) 415 nm; (in ClCCl) 420 nm; (in O) 444 nm; (in OCCO) 429 nm.

For the compound `Cc1ccc(C2=C3C=CC([Te]c4ccccc4)=[N+]3[B-](F)(F)n3c([Te]c4ccccc4)ccc32)cc1`, the emission maximum (in C1CCOC1) amounted to 659 nm.

In the case of `CC1(C)C2=C3C=C4C5=[N+](CCC4OC3CCN2c2ccc(CC(=O)NCCCCCCO)cc21)c1ccc(S(=O)(=O)[O-])cc1C5(C)C` (stereo unspecified), the emission maximum (in O) stood at 572 nm.

Take `CN(C)c1cc(-c2ccc(C#Cc3ccncc3)cc2)cc2ccccc12`: the emission maximum is, setting by setting: (in CC#N) 417.83 nm; (in CCO) 411.74 nm; (in ClCCl) 536 nm.

In turn, `CCOC(=O)CC[N+]1=c2cc3c(cc2CCC1)=Cc1c(c2ccc(N(C)C)cc2oc1=O)O3` had an emission maximum (in CC#N) of 643 nm, an emission maximum (in CO) of 641 nm, an emission maximum (in ClCCl) of 637 nm and an emission maximum (in O) of 644 nm.

In the case of `CC(C)(C)c1ccc(-c2nc3c4ccc(-c5c6ccccc6cc6ccccc56)cc4c4cc(-c5c6ccccc6cc6ccccc56)ccc4c3n2-c2ccc(C(C)(C)C)cc2)cc1`, the emission maximum came to 428 nm (in C1CCOC1); 429 nm (in C1COCCO1); 455 nm (in CC#N); 419 nm (in CCCCCC); 424 nm (in CCCCOCCCC); 421 nm (in CCN(CC)CC). Besides, the emission maximum is 429 nm (in CCOC(C)=O); 424 nm (in CCOCC); 451 nm (in CN(C)C=O); 428 nm (in Cc1ccccc1); 429 nm (in ClC=C(Cl)Cl); 442 nm (in ClCCl).

As for `O=Cc1ccc(C2=Cc3ccccc3P2(=O)c2ccccc2)cc1` (stereo unspecified), for the setting “in ClCCl”, the emission maximum was 427 nm.

`CCN(CC)c1ccc2cc(-c3nc4cc(C(=O)Nc5cccc(OC)c5)ccc4o3)c(=O)oc2c1` displayed an emission maximum (in ClCCl) of 494 nm.

With `COc1ccc(C2=CC(c3ccc4cc(N(C)C)ccc4c3)=[O+][B-](F)(F)O2)cc1`, the emission maximum is given as 618 nm (in C1CCOC1); 681 nm (in CC#N); 660 nm (in CC(C)=O); 698 nm (in CS(C)=O); 555 nm (in Cc1ccccc1); 596 nm (in ClC(Cl)Cl). Under “in ClCCl”, this compound gave an emission maximum of 631 nm.

As to `C[n+]1c2c(c(-c3ccccc3)c3c1CCCC3)CCCC2`, the emission maximum (in CCO) is recorded as 420 nm.

Turning to `CC(=O)Nc1ccc(C2=C/C(=C\c3ccc(C#N)cc3)C(=O)O2)cc1`, for the setting “in C1COCCO1”, the emission maximum amounted to 521 nm.

For `CC(=O)c1c2c(c(C(C)=O)c3c1OC(CC(=O)O)O3)OCO2`, for the setting “in CC#N”, the emission maximum was 553 nm.

For the compound `COC(=O)c1ccc(C2=C3C(C)=CC(C)=[N+]3[B-](F)(F)n3c(/C=C/c4c[nH]cn4)cc(C)c32)cc1`, the emission maximum (in ClC(Cl)Cl) came to 589 nm.

For the setting “in C1CCCCC1”, `Cc1ccc2cc(C)ccc2c1` had an emission maximum of 342.82 nm.

`CCOC(=O)C(Cc1ccc(O[Si]2(Oc3ccc(CC(NC(C)=O)C(=O)OCC)cc3)n3c4c5ccccc5c3/N=C3N=C(/N=c5/c6ccccc6/c(n52)=N/C2=NC(=N\4)/c4ccccc42)c2ccccc2\3)cc1)NC(C)=O` (stereo unspecified) returned an emission maximum (in CN(C)C=O) of 686 nm.

`CC1=C(C)c2cccc3c2c(cc2nc4ccccc4nc23)O1` yielded an emission maximum (in ClCCl) of 563 nm.

In the case of `CCCCN1C(=S)c2cccc3cccc(c23)C1=S`, for the setting “in Cc1ccccc1”, the emission maximum is on record as 506 nm.

Turning to `COc1cc2oc(=O)c3c4ccc(N(C)C)cc4c4ccc5cccc6c(c1)c2c3c4c56`, the emission maximum (in C1CCOC1) is given as 577 nm.

Turning to `C(=C\c1cccc(/C=C/c2c3ccccc3cc3ccccc23)c1)/c1ccncc1`, the emission maximum (in C1CCOC1) was determined as 475 nm.

With `CC[n+]1c(C=C2C(=O)C(C=C3N(C)c4ccc(Cl)cc4C3(C)C)=C2[O-])[se]c2ccccc21`, the emission maximum stood at 662 nm (in CO) and 677 nm (in ClC(Cl)Cl).

For the setting “in C1CCCCC1”, `COc1ccc([Si](C)(C)C)c2ccccc12` yielded an emission maximum of 327 nm.

In turn, `CC1=CC(C)=[N+]2C1=C(c1ccc(I)cc1)c1c(C)cc(C)n1[B-]2(F)F` came in with an emission maximum (in ClC(Cl)Cl) of 517.73 nm.

`COc1cc(OC)c2c(c1)C(=O)c1ccc(OC)cc1-2` displayed an emission maximum (in C1CCCCC1) of 537 nm and an emission maximum (in CC#N) of 578 nm.

In the case of `O=S(=O)([O-])CCCCN1C=C/C(=C/C=C/C=C/c2cc[n+](CCCCS(=O)(=O)[O-])c3ccccc23)c2ccccc21`, the emission maximum (in CO) amounted to 830 nm.

`CN(CC(O)c1cccc(O)c1)c1ccc([N+](=O)[O-])c(C2CC(c3cccc4ccccc34)=NN2c2ccccc2)c1` (stereo unspecified): the emission maximum runs as follows: (in C1CCCCC1) 495 nm; (in C1CCOC1) 467 nm; (in C1COCCO1) 454 nm; (in CC#N) 526 nm; (in CC(C)O) 511 nm; (in CCOC(C)=O) 498 nm. Besides, the emission maximum by setting is: (in CCOCC) 497 nm; (in CO) 514 nm; (in Cc1ccccc1) 497 nm; (in ClC(Cl)Cl) 451 nm; (in O) 518 nm.

Regarding `CN1CCN(CCCN2c3ccccc3Sc3ccc(Cl)cc32)CC1`, the emission maximum was determined as 449 nm (in CC#N), 449 nm (in CO) and 457 nm (in O).

In turn, `Cc1cc2cc(N3c4ccccc4Oc4ccccc43)ccc2c(=O)o1` registered an emission maximum (in Cc1ccccc1) of 540 nm.

Regarding `COC(=O)c1c2ccccc2nc2ccccc12`, the emission maximum reads like this: (in C1CCOC1) 418 nm; (in C1COCCO1) 420 nm; (in CC#N) 422 nm; (in CCCCCO) 432 nm; (in CCCCO) 431 nm; (in CCCO) 430 nm. Further, the emission maximum runs as follows: (in CCO) 432 nm; (in CO) 432 nm; (in COCCOC) 420 nm; (in ClC(Cl)Cl) 428 nm; (in ClCCl) 422 nm; (in OCCO) 418 nm.

In the case of `c1ccc(-c2cc(-c3ccc(N(c4ccccc4)c4ccccc4)cc3)cc(-c3ccccc3)n2)cc1`, the emission maximum is, setting by setting: (in CC#N) 489 nm; (in CCCCCC) 393 nm; (in CCO) 505 nm; (in CO) 524 nm; (in ClCCl) 476 nm.
